The values below come from PubChem BioAssay (NCI).

Several values for one entry are separate records, joined by “and”; a condition that tells them apart may be missing. Identical values can stand only once.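 In this assay, cells in 96-well plates receive the compound at five concentrations for 48 hours. Endpoints are linearly interpolated between the surrounding concentrations. Here, GI50 denotes the concentration required for 50% inhibition of growth. TGI: total growth inhibition.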

Some test systems named below: LOX IMVI melanoma; MALME-3M melanoma; HOP-18 NSCLC; SNB-78 CNS; IGROV1 ovarian; NCI-H23 lung; DMS 273 small cell lung; SF-268 CNS; OVCAR-8 ovarian; EKVX NSCLC; M19-MEL melanoma; DMS 114 small cell lung.
Common to all, as to assay: DTP human tumour cell line panel, 48 h

As to `COc1ccc(/C=C2\C(=O)Nc3ccccc32)cc1OC`, the TGI in the test on LOX IMVI melanoma, with MALME-3M melanoma, in the test on HOP-18 NSCLC, with SNB-78 CNS, in the test on IGROV1 ovarian and in the test with NCI-H23 lung was > 100 µM each time. In addition, the TGI with DMS 273 small cell lung, in the test with SF-268 CNS, with OVCAR-8 ovarian and in the test with EKVX NSCLC was > 100 µM each time.
As for `CCCCN(CCCC)C(=O)C(=O)C(C(=O)C(=O)OC)c1nc2ccccc2o1` (centres undefined), the TGI with LOX IMVI melanoma, in the test on MALME-3M melanoma, in the test on HOP-18 NSCLC, in the test on SNB-78 CNS, in the test with IGROV1 ovarian and in the test with NCI-H23 lung was > 100 µM in each case. Besides, the TGI with DMS 273 small cell lung, in the test with SF-268 CNS, with OVCAR-8 ovarian, in the test on M19-MEL melanoma and in the test with DMS 114 small cell lung was > 100 µM each time.
With `Cc1cc2c(=O)cc(-c3ccc(Cl)cc3Cl)oc2c(C(=O)O)c1C`, the TGI with LOX IMVI melanoma, in the test with MALME-3M melanoma, with HOP-18 NSCLC, with SNB-78 CNS, with IGROV1 ovarian and in the test on NCI-H23 lung was > 100 µM in each case. Besides, the TGI in the test with SF-268 CNS, in the test on OVCAR-8 ovarian, in the test with EKVX NSCLC and with DMS 114 small cell lung was > 100 µM in each case.
As to `COC1OC(CO)C(O)C(NC(=O)N(C)N=O)C1O` (centres undefined), the TGI in the test with MALME-3M melanoma, with HOP-18 NSCLC, with SNB-78 CNS, in the test with IGROV1 ovarian, in the test with NCI-H23 lung and with DMS 273 small cell lung was > 100 µM in each case. In addition, the TGI in the test with SF-268 CNS, with OVCAR-8 ovarian, with EKVX NSCLC, in the test with M19-MEL melanoma and in the test with DMS 114 small cell lung was > 100 µM each time.
In the case of `NC(=S)N/N=C/c1cn(CCCl)c2ccccc12`, the TGI in the test with LOX IMVI melanoma, in the test on MALME-3M melanoma, in the test on HOP-18 NSCLC, in the test with SNB-78 CNS, with IGROV1 ovarian and with NCI-H23 lung was > 100 µM in each case. Besides, the total growth inhibition concentration (TGI) in the test with SF-268 CNS, in the test on OVCAR-8 ovarian, in the test with EKVX NSCLC, in the test with M19-MEL melanoma and in the test with DMS 114 small cell lung was > 100 µM throughout.
On to `CC(=O)OC1C(COC(N)=O)OC(n2c(-c3ccc(C)cc3)cc(-c3ccccc3)c(C#N)c2=O)C(OC(C)=O)C1OC(C)=O` (centres undefined), for which the TGI with LOX IMVI melanoma, in the test with MALME-3M melanoma, with HOP-18 NSCLC, with SNB-78 CNS, in the test with IGROV1 ovarian and in the test with NCI-H23 lung was > 100 µM throughout. Besides, the TGI in the test with DMS 273 small cell lung, in the test with SF-268 CNS, with OVCAR-8 ovarian, with EKVX NSCLC and with M19-MEL melanoma was > 100 µM throughout.
With `Cc1cc2c(=O)cc(-c3ccc(Cl)c(Cl)c3)oc2c(C(=O)O)c1C`, the total growth inhibition concentration (TGI) with LOX IMVI melanoma, in the test on MALME-3M melanoma, with HOP-18 NSCLC, in the test with SNB-78 CNS, with IGROV1 ovarian and in the test with NCI-H23 lung was > 100 µM each time. In addition, the total growth inhibition concentration (TGI) in the test with SF-268 CNS, in the test with OVCAR-8 ovarian, in the test with EKVX NSCLC, with M19-MEL melanoma and in the test on DMS 114 small cell lung was > 100 µM in each case.
In the case of `COC(=O)C(=O)C(C(=O)C(=O)Nc1ccccc1C(N)=O)c1nc2ccc([N+](=O)[O-])cc2[nH]c1=O` (centres undefined), the TGI with LOX IMVI melanoma, in the test on MALME-3M melanoma, in the test with HOP-18 NSCLC, in the test on SNB-78 CNS, in the test with IGROV1 ovarian and with NCI-H23 lung was > 100 µM throughout. Also, the TGI in the test on DMS 273 small cell lung, in the test with SF-268 CNS, in the test with OVCAR-8 ovarian, in the test with EKVX NSCLC and with M19-MEL melanoma was > 100 µM each time.
With `CC[C@@]1(O)C(=O)OCc2c1cc1n(c2=O)Cc2cc3c(OC)cccc3nc2-1`, the GI50 with LOX IMVI melanoma is 0.00444 µM; in the test on IGROV1 ovarian it was > 100 µM; with NCI-H23 lung it was 0.0069 µM; with SF-268 CNS, 0.0035 µM. In addition, the TGI was 1.14 µM in the test on LOX IMVI melanoma; 1.89 µM in the test with MALME-3M melanoma; > 100 µM with HOP-18 NSCLC; > 100 µM in the test with IGROV1 ovarian; 0.0775 µM and 0.505 µM with NCI-H23 lung; 1.14 µM with DMS 273 small cell lung. Further, the TGI came to 1.01 µM in the test with SF-268 CNS; 1.9 µM with OVCAR-8 ovarian; 8.56 µM with EKVX NSCLC; 0.643 µM in the test on M19-MEL melanoma; 0.28 µM with DMS 114 small cell lung.
On to `Cc1cc2c(=O)cc(-c3ccc(C(=O)O)cc3)oc2c(C(N)=O)c1C`, for which the TGI with LOX IMVI melanoma, in the test with MALME-3M melanoma, with SNB-78 CNS, in the test with IGROV1 ovarian, in the test on NCI-H23 lung and in the test on DMS 273 small cell lung was > 100 µM throughout. Also, the TGI in the test with SF-268 CNS, with OVCAR-8 ovarian, in the test on EKVX NSCLC, in the test on M19-MEL melanoma and in the test with DMS 114 small cell lung was > 100 µM in each case.
For `CNC(=O)N(CCCC(NC(C)=O)C(=O)NCc1ccccc1)Cc1ccccc1` (centres undefined), the TGI with LOX IMVI melanoma, with MALME-3M melanoma, with SNB-78 CNS, in the test on IGROV1 ovarian, with NCI-H23 lung and with DMS 273 small cell lung was > 100 µM throughout. The concentration for total growth inhibition (TGI) in the test on SF-268 CNS, with OVCAR-8 ovarian, in the test on EKVX NSCLC, in the test on M19-MEL melanoma and in the test on DMS 114 small cell lung was > 100 µM each time.
On to `C=CCC1=C2CCCCC2CCC1=O` (centres undefined), for which the TGI in the test on LOX IMVI melanoma, with MALME-3M melanoma, in the test with SNB-78 CNS, in the test on IGROV1 ovarian, in the test with NCI-H23 lung and in the test on DMS 273 small cell lung was > 100 µM in each case. Besides, the TGI in the test with SF-268 CNS, in the test with OVCAR-8 ovarian, in the test with EKVX NSCLC, in the test on M19-MEL melanoma and with DMS 114 small cell lung was > 100 µM throughout.
